Assays:
[1] = system: dipeptidyl peptidase (DPP)-IV; conditions: cited from earlier work
Excerpt: Type 2 diabetes (T2D), which is a multifactorial metabolic disease that is largely characterized by impaired insulin secretion and action, has become a global pandemic in recent decades. Despite the availability of various treatments, T2D post-diagnosis complications such as cardiovascular disease (CVD) remain prevalent, and finding long-term stable treatment regimes for patients can be challenging. Therefore, novel therapeutic strategies, which alleviate the pathology associated with T2D more effectively than current treatments, are highly desirable. Th ...

GLP-1R [2] = system: GLP-1R; design: method as in PMID 27630114, doi:10.4172/2161-1459.1000138, PMID 27138453, PMID 27100083, PMID 25449603; conditions: cited from earlier work
Excerpt: The activation of the Gαs subunit of heterotrimeric G-protein raises intracellular cAMP levels via adenylyl cyclase (AC) activation, whereas the activation of the Gαq subunit increases intracellular calcium (iCa^2+) levels and extracellular signal-regulated kinase (ERK) phosphorylation, which promotes GLP-1R internalization. The internalization of GLP-1R is associate ...

INS-1E cells [3] = assay: GSIS with cAMP-elevating chemicals, insulin ELISA; format: cell-based, Rat; conditions: IBMX (10 μM), forskolin (0.5 mM), 15 mM glucose, n = 3; for augmentation of GSIS versus allosteric agonists: up to 12 h, p > 0.05
Description: Figure 9 Assessing the time-dependent effects of GLP-1R agonists and cAMP-elevating chemicals (IBMX and forskolin) on GSIS and GSICP in healthy, diabetic, and recovered INS-1E cells. […] Samples were analyzed using insulin (a) and cAMP (b) ELISAs. Data expressed as mean ± SEM, n = 3. […] No symbol on the bars indicates non-significance (p > 0.05) in comparison to the no agonist control at that time point. […] The cells were maintained in sterile 10 cm^2 tissue culture Petri dishes (Greiner Bio-one, Stonehouse, UK) by changing the FSM every 3–4 days and sub-culturing when they reached 100% confluency. Diabetic and recovered INS-1E cells were generated using a previously described method with some changes. […] To produce ‘recovered’ cells, the healthy cells were cultured initially in FSM containing 40 mM glucose (diabetic condition) for 4 weeks and then in FSM containing 11 mM glucose for 4 weeks. For all the following assays, INS-1E cells (100,000 cells/well) were plated in a 96-well plate in FSM and incubated for 24 h in a humid incubator at 37 °C and 5% CO2 for the cells to attach and reach >80% confluency. Unless otherwise specified, all incubations of the cells in the following assays were carried out in a humid incubator at 37 °C and 5% CO2, and all of the ELISAs were carried out at room temperature (RT). The insulin secreted by INS-1E cells during the treatments was measured using an insulin ELISA. INS-1E cells (100,000 cells/well) were plated in a 96-well plate in FSM. […] The cells were then incubated in the KRH buffer containing the specified concentration of glucose without or with the specified concentration of GLP-1R agonist(s) for the desired time. After cessation of the cell treatments, the media were clarified via centrifugation at 22,000× g for 5 min and then diluted 1 in 25 in dilution buffer (0.5% fish gelatin made in PBST [PBS with 0.05% tween-20]) and used for the insulin ELISA. The sample preparation for measuring the intracellular insulin contents of the INS-1E cells via the insulin ELISA was as follows. After cessation of the treatments, the cells were lysed in 150 μL of 0.1 M HCl. The cell lysates were centrifuged at 22,000× g for 5 min, then the supernatant was diluted 1 in 1000 in dilution buffer to use as the samples for the insulin ELISA. For the ELISA, the wells of 96-well plate inserts were coated with 50 μL of 3 μg/mL captured antibody (Novus Biologicals, Abingdon, UK) diluted in PBS for 2 h at 37 °C and then washed four times with PBST. […] The reaction was stopped by adding an equal volume of 2M sulfuric acid, then its optical density was read at 450 nm (OD450) using a plate reader. Using known insulin standards (Abcam, Cambridge, UK), the insulin concentrations of samples were determined.

INS-1E cells [4] = assay: Intracellular cAMP (GSICP) with cAMP-elevating chemicals, cAMP ELISA; format: cell-based, Rat; conditions: IBMX (10 μM), forskolin (0.5 mM), 15 mM glucose, n = 3; for intracellular cAMP (GSICP) versus allosteric agonists: up to 12 h, p > 0.05
Description: Figure 9 Assessing the time-dependent effects of GLP-1R agonists and cAMP-elevating chemicals (IBMX and forskolin) on GSIS and GSICP in healthy, diabetic, and recovered INS-1E cells. […] Samples were analyzed using insulin (a) and cAMP (b) ELISAs. Data expressed as mean ± SEM, n = 3. […] No symbol on the bars indicates non-significance (p > 0.05) in comparison to the no agonist control at that time point. […] The cells were maintained in sterile 10 cm^2 tissue culture Petri dishes (Greiner Bio-one, Stonehouse, UK) by changing the FSM every 3–4 days and sub-culturing when they reached 100% confluency. Diabetic and recovered INS-1E cells were generated using a previously described method with some changes. […] To produce ‘recovered’ cells, the healthy cells were cultured initially in FSM containing 40 mM glucose (diabetic condition) for 4 weeks and then in FSM containing 11 mM glucose for 4 weeks. For all the following assays, INS-1E cells (100,000 cells/well) were plated in a 96-well plate in FSM and incubated for 24 h in a humid incubator at 37 °C and 5% CO2 for the cells to attach and reach >80% confluency. Unless otherwise specified, all incubations of the cells in the following assays were carried out in a humid incubator at 37 °C and 5% CO2, and all of the ELISAs were carried out at room temperature (RT). The intracellular cAMP contents of the INS-1E cells during the treatments was measured using a cAMP ELISA. INS-1E cells (100,000 cells/well) were plated in a 96-well plate in FSM. After 24 h, the cells were pre-incubated with KRH buffer containing 0.5% fish gelatin for 1 h, washed twice with KRH and then incubated for 1 h with KRH to reduce basal cAMP levels. The cells were incubated in the KRH buffer containing various concentrations of glucose without or with different concentrations of GLP-1R agonists for the desired time. The cells were then lysed in 150 μL of 0.1M HCl by incubating at RT for 20 min, and then the cell lysates were centrifuged at 16,000× g for 10 min. A total of 12 μL of the supernatant was neutralized with 6 μL of 0.2M NaOH, diluted to 120 μL with TBS containing 0.05% Tween-20 (TBST), and used in the cAMP ELISA. For the ELISA, an anti-rabbit antibody (Genscript, Oxford, UK) diluted to 10 μg/mL in 100 mM NaHCO3 buffer (pH 9.6) was used to coat the wells (50 μL per well) of a 96-well plate overnight at 4 °C. The coated wells were washed twice with TBST and blocked with blocking buffer (TBST containing 0.5% fatty acid-free BSA) for 1 h. Samples of 50 μL were then added individually in duplicate to the antibody-coated wells. […] The reaction was stopped after 5 min with 50 μL of 2M sulfuric acid, then its optical density was read at 450 nm (OD450) using a plate reader. Using known cAMP standards, the cAMP contents of the samples were determined.

GLP-1R [5] = target: T1, GLP-1R (Rattus norvegicus, UniProt P32301); assay: Glucose-stimulated insulin secretion (GSIS), insulin ELISA, INS-1E cells; format: cell-based; conditions: 10 μM, 15 mM glucose, n = 3
T1 construct: Rat INS-1E cells were cultured in RPMI-1640 containing 11 mM glucose; endogenous in cells; host or cells: INS-1E rat pancreatic beta cell line (healthy, diabetic and recovered states)
T1 sequence (P32301 22-463): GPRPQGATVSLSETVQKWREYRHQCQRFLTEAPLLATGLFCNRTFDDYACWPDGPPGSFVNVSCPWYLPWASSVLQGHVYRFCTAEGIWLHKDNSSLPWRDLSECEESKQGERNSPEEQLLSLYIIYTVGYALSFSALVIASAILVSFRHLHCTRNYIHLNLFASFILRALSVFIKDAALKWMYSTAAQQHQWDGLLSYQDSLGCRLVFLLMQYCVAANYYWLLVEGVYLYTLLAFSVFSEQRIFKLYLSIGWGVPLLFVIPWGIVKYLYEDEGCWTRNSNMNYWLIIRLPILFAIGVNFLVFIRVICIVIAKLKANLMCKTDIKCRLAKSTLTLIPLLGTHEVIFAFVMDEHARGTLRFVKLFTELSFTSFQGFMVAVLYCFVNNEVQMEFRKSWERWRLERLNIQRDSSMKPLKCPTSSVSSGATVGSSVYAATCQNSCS
Description: The cells were maintained in sterile 10 cm^2 tissue culture Petri dishes (Greiner Bio-one, Stonehouse, UK) by changing the FSM every 3–4 days and sub-culturing when they reached 100% confluency. Diabetic and recovered INS-1E cells were generated using a previously described method with some changes [41]. To produce ‘diabetic’ INS-1E cells, when healthy INS-1E cells reached >80% confluency, they were maintained in FSM containing high glucose (40 mM) for 4 weeks by changing the medium with high glucose every 3–4 days. To produce ‘recovered’ cells, the healthy cells were cultured initially in FSM containing 40 mM glucose (diabetic condition) for 4 weeks and then in FSM containing 11 mM glucose for 4 weeks. […] Unless otherwise specified, all incubations of the cells in the following assays were carried out in a humid incubator at 37 °C and 5% CO2, and all of the ELISAs were carried out at room temperature (RT).
For the ELISA, the wells of 96-well plate inserts were coated with 50 μL of 3 μg/mL captured antibody (Novus Biologicals, Abingdon, UK) diluted in PBS for 2 h at 37 °C and then washed four times with PBST. The antibody-coated wells were then blocked for 1 h with 150 μL of blocking buffer (5% fish gelatin made in PBST). Samples of 50 μL of samples were added to the capture antibody-coated wells in duplicate and incubated overnight at 4 °C. The wells were then washed five times with PBST and incubated with 50 μL of HRP-conjugated detection antibody (Abcam; diluted 1/10,000 in dilution buffer) for 2 h. The wells were washed again five times with PBST and incubated with 50 μL of Ultra TMB substrate (Thermo Fisher Scientific, Loughborough, UK) for 5 min. The reaction was stopped by adding an equal volume of 2M sulfuric acid, then its optical density was read at 450 nm (OD450) using a plate reader. Using known insulin standards (Abcam, Cambridge, UK), the insulin concentrations of samples were determined.

human islets = system: human islets; design: method as in PMID 20823098; conditions: human islets isolated from a donor with T2D; cited from earlier work
GLP-1R [6] = target: T1, GLP-1R; assay: Glucose-stimulated intracellular cAMP production (GSICP), cAMP ELISA, INS-1E cells; format: cell-based; conditions: diabetic INS-1E; 1 and 2 h, in some instances; 10 μM; n = 3
Description: The cells were maintained in sterile 10 cm^2 tissue culture Petri dishes (Greiner Bio-one, Stonehouse, UK) by changing the FSM every 3–4 days and sub-culturing when they reached 100% confluency. Diabetic and recovered INS-1E cells were generated using a previously described method with some changes [41]. To produce ‘diabetic’ INS-1E cells, when healthy INS-1E cells reached >80% confluency, they were maintained in FSM containing high glucose (40 mM) for 4 weeks by changing the medium with high glucose every 3–4 days. To produce ‘recovered’ cells, the healthy cells were cultured initially in FSM containing 40 mM glucose (diabetic condition) for 4 weeks and then in FSM containing 11 mM glucose for 4 weeks. […]
The intracellular cAMP contents of the INS-1E cells during the treatments was measured using a cAMP ELISA. […]
For the ELISA, an anti-rabbit antibody (Genscript, Oxford, UK) diluted to 10 μg/mL in 100 mM NaHCO3 buffer (pH 9.6) was used to coat the wells (50 μL per well) of a 96-well plate overnight at 4 °C. […] The reaction was stopped after 5 min with 50 μL of 2M sulfuric acid, then its optical density was read at 450 nm (OD450) using a plate reader. Using known cAMP standards, the cAMP contents of the samples were determined.

Compound | time after which augmentation of GSIS was lost (INS-1E cells [3]) [h] | augmentation of GSIS versus allosteric agonists (INS-1E cells [3]) | time after which augmentation of GSICP was lost (INS-1E cells [4]) [h] | intracellular cAMP (GSICP) versus allosteric agonists (INS-1E cells [4]) | GSIS at 48 h, 72 h and 96 h (GLP-1R [5]; diabetic INS-1E) | GSIS at 48 h, 72 h and 96 h (GLP-1R [5]; healthy and recovered INS-1E) | other results
GLP-1: hormone secreted into the circulation by intestinal L-cells in response to food intake | – | – | – | – | – | – | half-life [1]: short half-life; G-protein pathway activation via GLP-1R (GLP-1R [2]): activation of both the Gαs and Gαq pathways
C=C[C@@]1(C)CC(=O)[C@]2(O)[C@@]3(C)[C@@H](O)CCC(C)(C)[C@@H]3[C@H](O)[C@H](OC(C)=O)[C@@]2(C)O1 [forskolin] | 12 | augmented GSIS to similar levels | 12 | raised intracellular cAMP levels | – | – | –
CCCCCCCCCCCCCCCC(=O)N[C@@H](CCC(=O)NCCCC[C@H](NC(=O)[C@H](C)NC(=O)[C@H](C)NC(=O)[C@H](CCC(N)=O)NC(=O)CNC(=O)[C@H](CCC(=O)O)NC(=O)[C@H](CC(C)C)NC(=O)[C@H](Cc1ccc(O)cc1)NC(=O)[C@H](CO)NC(=O)[C@H](CO)NC(=O)[C@@H](NC(=O)[C@H](CC(=O)O)NC(=O)[C@H](CO)NC(=O)[C@@H](NC(=O)[C@H](Cc1ccccc1)NC(=O)[C@@H](NC(=O)CNC(=O)[C@H](CCC(=O)O)NC(=O)[C@H](C)NC(=O)[C@@H](N)Cc1cnc[nH]1)[C@@H](C)O)[C@@H](C)O)C(C)C)C(=O)N[C@@H](CCC(=O)O)C(=O)N[C@@H](Cc1ccccc1)C(=O)N[C@H](C(=O)N[C@@H](C)C(=O)N[C@@H](Cc1c[nH]c2ccccc12)C(=O)N[C@@H](CC(C)C)C(=O)N[C@H](C(=O)N[C@@H](CCCNC(=N)N)C(=O)NCC(=O)N[C@@H](CCCNC(=N)N)C(=O)NCC(=O)O)C(C)C)[C@@H](C)CC)C(=O)O [Liraglutide] | – | – | – | – | – | – | resistance to DPP-IV [1]: resistant to breakdown by DPP-IV
CC(C)(C)Nc1nc2cc(Cl)c(Cl)cc2nc1S(C)(=O)=O [Compound 2, 6,7-dichloro-2-methylsulfonyl-3-N-tert-butylaminoquinoxaline] | – | – | – | – | significantly boosted GSIS | slightly increased GSIS | –
CC(C)Cn1c(=O)n(C)c(=O)c2[nH]cnc21 [IBMX, Isobutylmethylxanthine] | 12 | augmented GSIS to similar levels | 12 | raised intracellular cAMP levels | – | – | –
CC[S+]([O-])c1nc(-c2cccc(OCc3ccccc3)c2)cc(C(F)(F)F)n1 (centres unmarked) [Compound B, 4-(3-(benzyloxy)phenyl)-2-(ethylsulfinyl)-6-(trifluoromethyl)-pyramidine] | – | – | – | – | significantly boosted GSIS | slightly increased GSIS | insulin secretion (human islets): near-normal levels; GSICP, 8 mM glucose preincubation (GLP-1R [6]): boosted GSCIP to a greater extent
